Read-outs that look alike come from different tables or passages of the source.
What was measured:
[1] = for logp [a]: pH 2.3; for logp [b]: pH 2.7; for logp [c]: pH 7.8
physchem = conditions: pH 2.3
Gibberella zeae = conditions: in vivo
[2] = system: Production of Fumonisin FB1 by Fusarium Proliferatum; assay: Production of fumonisin FB1 by Fusarium proliferatum; assay type: cell-based; conditions: FB1 concentration by HPLC-MS/MS after 6 days at 20° C.
Fusarium proliferatum = assay: Growth of Fusarium proliferatum (OD620) in the fumonisin test; assay type: cell-based; conditions: OD620 at the beginning and after 6 days
[3] = logP determination by HPLC on reversed-phase columns (EEC directive 79/831 Annex V.A8); conditions: for logp [a] / logp [b]: acidic range; for logp [a]: pH 2.3, 0.1% aqueous phosphoric acid and acetonitrile; for logp [b] / logp [c]: LC-MS; for logp [b]: pH 2.7, 0.1% aqueous formic acid and acetonitrile; for logp [c]: neutral range, pH 7.8, 0.001 molar aqueous ammonium bicarbonate and acetonitrile

SMILES | logp [b] [1] | logp [c] [1] | also measured
CC1CC1Nc1nc(Nc2ccsc2)ncc1Cl (mixture of isomers) [Example 17] | – | – | logp [a] [1]: 1.97[a]
CC(=O)c1ccc(N)s1 [1-(5-Amino-2-thienyl)ethanone] | – | – | chromatographic logP (physchem): 0.42
Cc1ccc(NC(=O)OC(C)(C)C)s1 [2-(N-tert-Butoxycarbonylamino)-5-methylthiophene] | – | – | chromatographic logP (physchem): 2.89
Clc1cnc(Nc2ccsc2)nc1NC1CC1 [Example 1] | 1.63[b] | – | –
FC(F)(F)c1cnc(Nc2ccsc2)nc1NC1CC1 [Example 2] | 2.69[b] | – | efficacy (Gibberella zeae): ≥ 80%
Brc1cnc(Nc2ccsc2)nc1NC1CCC1 [Example 3] | 2.12[b] | – | –
Brc1cnc(Nc2ccsc2)nc1NC1CC1 [Example 4] | 1.71[b] | – | –
COC(=O)c1cc(Nc2ncc(Cl)c(NC3CC3)n2)cs1 [Example 5, 5-Chloro-N^4-cyclopropyl-N^2-2-methoxycarbonylthiophen-4-yl-2,4-diamine] | – | – | pI50 Fum [2]: 5.3; pI50 growth (Fusarium proliferatum): 4.4; logp [a] [3]: 1.68[a]; logP (pH 2.3) [3]: 1.68
O=C(c1cc(Nc2ncc(Cl)c(NC3CC3)n2)cs1)N1CCCC1 [Example 6, 5-Chloro-N^4-cyclopropyl-N^2-2-pyrrolidin-1-ylcarbonylthiophen-4-yl-2,4-diamine] | – | – | pI50 Fum [2]: 5.9; pI50 growth (Fusarium proliferatum): 5.6; logp [a] [3]: 1.42[a]; logP (pH 2.3) [3]: 1.40
O=C(c1cc(Nc2ncc(Cl)c(NC3CC3)n2)cs1)N1CCCCC1 [Example 7] | – | – | logp [a] [1]: 1.68[a]
CC(C)N(C)C(=O)c1cc(Nc2ncc(Cl)c(NC3CC3)n2)cs1 [Example 8] | – | – | logp [a] [1]: 1.6[a]
CCN(CC)C(=O)c1cc(Nc2ncc(Cl)c(NC3CC3)n2)cs1 [Example 9] | – | – | pI50 Fum [2]: 6.0; pI50 growth (Fusarium proliferatum): 5.5; logp [a] [1]: 1.62[a]
CC(=O)c1ccc(Nc2ncc(Cl)c(NC3CC3)n2)s1 [Example 10, N^4-Cyclopropyl-N^2-2-acetylthiophen-5-yl-5-(chloro)pyrimidine-2,4-diamine] | – | – | chromatographic logP (physchem): 1.87
N#Cc1csc(Nc2ncc(Cl)c(NC3CC3)n2)c1 [Example 12] | – | – | logp [a] [1]: 2.55[a]
CC(=O)c1cc(Nc2ncc(Cl)c(NC3CC3)n2)cs1 [Example 13] | – | – | logp [a] [1]: 1.44[a]
N#Cc1cc(Nc2ncc(Cl)c(NC3CC3)n2)cs1 [Example 14] | – | – | logp [a] [1]: 2.23[a]
Clc1cnc(Nc2ccsc2)nc1NC1CCC1 [Example 18] | 1.96[b] | 3.46[c]; | –
O=C(c1cc(Nc2ncc(Cl)c(NC3CC3)n2)cs1)N1CCOCC1 [Example 19] | 1.45[b] | 2.09[c]; | –
CC(C)(C)NC(=O)c1cc(Nc2ncc(Cl)c(NC3CC3)n2)cs1 [Example 20] | 2.11[b] | – | –
C=CCNC(=O)c1cc(Nc2ncc(Cl)c(NC3CC3)n2)cs1 [Example 21] | – | 2.28[c] | –
C=CCN(C)C(=O)c1cc(Nc2ncc(Cl)c(NC3CC3)n2)cs1 [Example 22] | 1.89[b] | 2.65[c]; | –
COCCNC(=O)c1cc(Nc2ncc(Cl)c(NC3CC3)n2)cs1 [Example 23] | 1.38[b] | 2.01[c]; | –

SMILES | logp [b] [1] | logp [c] [1] | also measured
COCC(C)NC(=O)c1cc(Nc2ncc(Cl)c(NC3CC3)n2)cs1 (stereo not shown) [Example 24] | 1.58[b] | 2.22 [c]; | –
O=C(NO)c1cc(Nc2ncc(Cl)c(NC3CC3)n2)cs1 [Example 25] | 2.1[b] | 2.96[c]; | –
Cc1ccc(Nc2ncc(Cl)c(NC3CC3)n2)s1 [Example 26, 5-Chloro-N^4-cyclopropyl-N^2-2-methylthiophen-5-yl-2,4-diamine] | – | – | logp [b] [3]: 2.09[b]; logp [c] [3]: 3.20[c];; logP (pH 2.3) [3]: 2.09
CC(C)Nc1nc(Nc2ccsc2)ncc1Cl [Example 27] | 1.66[b] | 3.28[c]; | –
CC(C)Nc1nc(Nc2ccsc2)ncc1Br [Example 28] | 1.85[b] | 3.43[c]; | –
FC(F)(F)CNc1nc(Nc2ccsc2)ncc1Br [Example 29] | – | 3.50[c] | –
FC(F)CNc1nc(Nc2ccsc2)ncc1Br [Example 30] | 1.99[b] | 2.83[c]; | –
FC(F)CNc1nc(Nc2ccsc2)ncc1Cl [Example 31] | 1.88[b] | 2.72[c]; | –
Clc1cnc(Nc2ccsc2)nc1NCC1CC1 [Example 32] | 2.33[b] | 3.31[c]; | –
CS(=O)(=O)c1ccc(Nc2ncc(Cl)c(NC3CC3)n2)s1 [Example 33] | 1.97[b] | 2.02[c]; | –
CSc1ccc(Nc2ncc(Cl)c(NC3CC3)n2)s1 [Example 34] | 2.84[b] | 3.36[c]; | –
CSc1ccc(Nc2ncc(Br)c(NC3CC3)n2)s1 [Example 35] | 3.02[b] | 3.53[c]; | –
Cc1ccc(Nc2ncc(C(F)(F)F)c(NC3CC3)n2)s1 [Example 36] | 3.22[b] | 3.56[c]; | –
O=C(O)c1cc(Nc2ncc(Cl)c(NC3CC3)n2)cs1 [Example 37, 5-Chloro-N^4-cyclopropyl-N^2-2-hydroxycarbonylthiophen-4-yl-2,4-diamine] | – | – | logp [b] [3]: 1.30[b]; logp [c] [3]: 0.74[c];; logP (pH 2.3) [3]: 1.30
CN(CC1CC1)C(=O)c1cc(Nc2ncc(Cl)c(NC3CC3)n2)cs1 [Example 38] | 2.08[b] | 2.86[c]; | –
S=C(c1cc(Nc2ncc(Cl)c(NC3CC3)n2)cs1)N1CCCC1 [Example 39] | 2.31[b] | 3.23[c]; | –
CCN(CC)C(=S)c1cc(Nc2ncc(Cl)c(NC3CC3)n2)cs1 [Example 40] | 2.55[b] | 3.51[c]; | –
Clc1cc(Nc2ncc(Cl)c(NC3CC3)n2)cs1 [Example 41] | 2.63[b] | – | –
Clc1ccc(Nc2ncc(Cl)c(NC3CC3)n2)s1 [Example 43] | – | 3.54[c]; | –
Cc1ccc(Nc2ncc(Br)c(NC3CC3)n2)s1 [Example 44] | 2.27[b] | 3.35[c]; | –
Clc1cnc(Nc2ccsc2)nc1Cl [Example X-1, 4,5-Dichloro-N-(3-thienyl)pyrimidin-2-amine] | – | – | chromatographic logP (physchem): 3.55
O=c1[nH]c(Nc2ccsc2)ncc1Cl [IX-1, 2-(Thiophen-3-ylamino)-5-chloropyrimidin-4(3H)-one] | – | – | chromatographic logP (physchem): 1.38

Source: US20110237612A1, “Thienylamino pyrimidines for use as Fungicides” (BayerCropScience AG, priority 2008, published 2011)
